Experimental data taken from PubChem BioAssay (NCI).
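Cells were grown in 96-well plates and exposed to each compound for 48 hours at five concentrations; endpoints were interpolated linearly between bracketing concentrations, or set to the highest concentration if not reached. At the GI50, growth is halved. TGI marks complete inhibition of growth.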

Key:
Test in all cases: inhibition of tumour cell growth, NCI panel, 48 h
HCC-2998 colon = test system: HCC-2998 colon
UO-31 renal = test system: UO-31 renal
UACC-62 melanoma = test system: UACC-62 melanoma
HCT-15 colon = test system: HCT-15 colon
CAKI-1 renal = test system: CAKI-1 renal
OVCAR-5 ovarian = test system: OVCAR-5 ovarian
SK-MEL-2 melanoma = test system: SK-MEL-2 melanoma
OVCAR-3 ovarian = test system: OVCAR-3 ovarian
MDA-MB-435 = test system: MDA-MB-435
MDA-MB-231 breast = test system: MDA-MB-231 breast

COC(=O)C(=O)C(C(C)=O)C(=O)NCc1ccccc1 (stereo unspecified)
TGI (HCC-2998 colon): > 100 µM
TGI (UO-31 renal): > 100 µM
TGI (UACC-62 melanoma): > 100 µM
TGI (HCT-15 colon): > 100 µM
TGI (CAKI-1 renal): > 100 µM
TGI (OVCAR-5 ovarian): > 100 µM
TGI (SK-MEL-2 melanoma): > 100 µM
TGI (OVCAR-3 ovarian): > 100 µM

COc1cc2c3cc1Oc1c(OC)c(OC)cc4c1[C@@H](Cc1ccc(O)c(c1)Oc1ccc(cc1)C[C@@H]3N(C)CC2)N(C)CC4
TGI (HCC-2998 colon): 20.4 µM
TGI (UO-31 renal): 30.1 µM
TGI (UACC-62 melanoma): 30.5 µM
TGI (HCT-15 colon): 27.2 µM
TGI (CAKI-1 renal): 19.7 µM
TGI (OVCAR-5 ovarian): > 100 µM
TGI (SK-MEL-2 melanoma): 30.9 µM
TGI (OVCAR-3 ovarian): 29.5 µM

O=C1C(Cl)=C(Cl)C(=O)N1c1cccc(C(F)(F)F)c1
TGI (HCC-2998 colon): > 100 µM
TGI (UO-31 renal): > 100 µM
TGI (UACC-62 melanoma): > 100 µM
TGI (HCT-15 colon): > 100 µM
TGI (CAKI-1 renal): 98 µM
TGI (OVCAR-5 ovarian): > 100 µM
TGI (SK-MEL-2 melanoma): > 100 µM
TGI (OVCAR-3 ovarian): > 100 µM

CC(C)N1C(C)[C@@H](c2ccccc2)O[P@@]1(=O)CC1=CCCCC1 (stereo partly specified)
TGI (HCC-2998 colon): > 100 µM
TGI (UO-31 renal): > 100 µM
TGI (UACC-62 melanoma): > 100 µM
TGI (HCT-15 colon): > 100 µM
TGI (OVCAR-5 ovarian): > 100 µM
TGI (SK-MEL-2 melanoma): > 100 µM
TGI (OVCAR-3 ovarian): > 100 µM

COc1cccc2c(SCC(=O)Nc3ccccc3-c3ccccc3NC(=O)CSc3c4ccccc4nc4c(OC)cccc34)c3ccccc3nc12
TGI (HCC-2998 colon): > 100 µM
TGI (UACC-62 melanoma): > 100 µM
TGI (HCT-15 colon): > 100 µM
TGI (OVCAR-5 ovarian): > 100 µM
TGI (SK-MEL-2 melanoma): > 100 µM
TGI (OVCAR-3 ovarian): > 100 µM

C=C1C(=O)O[C@H]2[C@H]1CC/C(COC(=O)CCCCCCCC(=O)OC/C1=C/CC[C@@]3(C)O[C@H]3[C@H]3OC(=O)C(=C)[C@@H]3CC1)=C\CC[C@@]1(C)O[C@@H]21
GI50 (HCC-2998 colon): 1.9 µM
TGI (HCC-2998 colon): 3.88 µM
GI50 (UO-31 renal): 1.5 µM
TGI (UO-31 renal): 3.79 µM
GI50 (UACC-62 melanoma): 2.45 µM
TGI (UACC-62 melanoma): 6.51 µM
GI50 (HCT-15 colon): 1.75 µM
TGI (HCT-15 colon): 4.16 µM
GI50 (MDA-MB-435): 2.59 µM
TGI (MDA-MB-435): 7.33 µM
GI50 (OVCAR-5 ovarian): 2.48 µM
TGI (OVCAR-5 ovarian): 7.01 µM
GI50 (MDA-MB-231 breast): 1.98 µM
TGI (MDA-MB-231 breast): 4.61 µM
GI50 (SK-MEL-2 melanoma): 11.3 µM
TGI (SK-MEL-2 melanoma): 31.5 µM
GI50 (OVCAR-3 ovarian): 1.32 µM
TGI (OVCAR-3 ovarian): 2.79 µM

COc1cc2c3c(n([C@@H]4CCOC4)c(=O)c2cc1OC)-c1cc2c(cc1C3=O)OCO2
GI50 (UO-31 renal): < 0.01 µM
TGI (UO-31 renal): > 100 µM

CCCCCN(CCCCC)C(=O)[C@H](CCC(=O)O)NC(=O)c1cc2ccccc2[nH]1
TGI (HCC-2998 colon): > 100 µM
TGI (UO-31 renal): > 100 µM
TGI (UACC-62 melanoma): > 100 µM
TGI (HCT-15 colon): > 100 µM
TGI (CAKI-1 renal): > 100 µM
TGI (OVCAR-5 ovarian): > 100 µM
TGI (SK-MEL-2 melanoma): > 100 µM
TGI (OVCAR-3 ovarian): > 100 µM

CCOC(=O)C(=O)Nc1c(C)cccc1C(C)(C)C
TGI (HCC-2998 colon): > 100 µM
TGI (UO-31 renal): > 100 µM
TGI (UACC-62 melanoma): > 100 µM
TGI (HCT-15 colon): > 100 µM
TGI (CAKI-1 renal): > 100 µM
TGI (OVCAR-5 ovarian): > 100 µM
TGI (SK-MEL-2 melanoma): > 100 µM
TGI (OVCAR-3 ovarian): > 100 µM

COC(=O)c1ccc(NC(=O)c2ccc(NC3=C(Cl)C(=O)N(Cc4ccccc4)C3=O)cc2)cc1
GI50 (UO-31 renal): 17.9 µM
TGI (UO-31 renal): 31.7 µM
GI50 (UACC-62 melanoma): 18.7 µM
TGI (UACC-62 melanoma): 37.1 µM
GI50 (HCT-15 colon): 14.6 µM
TGI (HCT-15 colon): 27.7 µM
GI50 (MDA-MB-435): 12.3 µM
TGI (MDA-MB-435): 27 µM
GI50 (CAKI-1 renal): 2.49 µM
TGI (CAKI-1 renal): 6.4 µM
GI50 (OVCAR-5 ovarian): 21.5 µM
TGI (OVCAR-5 ovarian): 39 µM
GI50 (MDA-MB-231 breast): 19.7 µM
TGI (MDA-MB-231 breast): 34.7 µM
GI50 (SK-MEL-2 melanoma): 17.3 µM
TGI (SK-MEL-2 melanoma): 42.2 µM
GI50 (OVCAR-3 ovarian): 14 µM
TGI (OVCAR-3 ovarian): 26.9 µM
